From patent US9532962B2, “Medium-chain length fatty acids and glycerides as nephroprotection agents” (priority 2007, dated 2017)
“Also recorded” adds a separate entry of the source.

Experiments:
C57B1/6 mice = experiment: Doxorubicin-induced nephrotoxicity model; format: in vivo; conditions: for histological kidney lesions score: 10 mg/kg i.v. at day 0; for histological kidney lesions score at the tubular level induced by doxorubicin / serum urea induced by doxorubicin: oral; for serum creatinine induced by doxorubicin: FIG. 9; for serum urea induced by doxorubicin: FIG. 10
Description: C57B1/6 mice (6-10 week-old) were treated with sodium caprate prophylacticly from day −3 to day 10 or treated therapeutically from day 1 to 10. Nephrotoxicity was induced by an intravenous injection of 10 mg/kg of doxorubicin at day 0, Serum creatinine and urea were monitored at day 4, 7 and 11.

[1] = test system: 5/6 nephrectomized (Nx) rats; experiment: Kidney protection in 5/6 nephrectomized (Nx) rat model; format: in vivo, Wistar rats
Description: (§1) Male 6 week-old Wistar rats were subjected to 5/6 nephrectomy or sham operations. Under ketamine anesthesia (60 to 100 mg/kg, i.p.), renal ablation was achieved by removing two-thirds of the left kidney followed by a right unilateral nephrectomy 7 days later. Sham rats underwent exposition of the kidneys and removal of the perirenal fat. Twenty-one days after the first operation, rats were assigned in the study if the serum creatinine was greater than 125 μmol/L indicating a dysfunction of the kidney. Animals that underwent the sham operation were given vehicle (saline) and were used as controls. Nx animals were divided in groups receiving the vehicle or sodium caprate. Saline or sodium caprate was given by gastric gavage once daily for 35 days. Serum creatinine was measured weekly in order to assess the severity of this end-stage renal disease model. Rats were sacrificed at day 63.

[2] = test system: 5/6 nephrectomized (Nx) rats; experiment: Heart protection (blood pressure) in 5/6 nephrectomized (Nx) rat model; format: in vivo; conditions: RTBP 2000, FIG. 8
Description: as §1

[3] = prophylactic (pre-doxorubicin) treatment
[4] = therapeutic (post-doxorubicin) treatment

Row | SMILES | histological lesions in affected tubular regions (micrographs) (C57B1/6 mice; 10 mg/kg i.v. at day 0, 400×) | histological kidney lesions score (C57B1/6 mice; day 7 and 11, FIG. 11) | histological kidney lesions score (C57B1/6 mice; day 12, FIG. 13) | histological kidney lesions score at the tubular level induced by doxorubicin (C57B1/6 mice; [3]) | protection of kidney against doxorubicin toxicity, histological micrographs (C57B1/6 mice; prophylactic treatment, 400×) | histological kidney lesions score at the tubular level induced by doxorubicin (C57B1/6 mice; [4]) | protection of kidney against doxorubicin toxicity, histological micrographs (C57B1/6 mice; therapeutic treatment) | serum creatinine induced by doxorubicin (C57B1/6 mice; prophylactic treatment day -3 to day 10, oral) | serum urea induced by doxorubicin (C57B1/6 mice; prophylactic treatment) | serum creatinine induced by doxorubicin (C57B1/6 mice; therapeutic treatment day 1 to 10, oral) | serum urea induced by doxorubicin (C57B1/6 mice; therapeutic treatment) | kidney structure (density, glomerulus and tubular structure), histological micrographs ([1]; 40×, compared to control Nx rats, FIG. 6) | fibrosis and necrosis of the kidney tissue, histological micrographs ([1]; 400×, glomerulus level, FIG. 7) | serum creatinine ([1]; compared to control Nx rats, FIG. 5) | urine creatinine ([1]; day 21 to day 42, FIG. 4) | animals showing reduction of initial serum creatinine concentration ([1]; sodium caprate-treated Nx rats, FIG. 2) [%] | blood pressure [2]
1 | COc1cccc2c1C(=O)c1c(O)c3c(c(O)c1C2=O)C[C@@](O)(C(=O)CO)C[C@@H]3O[C@H]1C[C@H](N)[C@H](O)[C@H](C)O1 [doxorubicin, reference compound] | induces kidney cell apoptosis, fibrosis, sclerosis, and accumulation of proteins; also recorded: induces kidney cell apoptosis, fibrosis, sclerosis and accumulation of proteins | induces significant kidney lesions | induces significant kidney lesions |  |  |  |  |  |  |  |  |  |  |  |  |  | 
2 | CCCCCCCCCC(=O)OCC(COC(=O)CCCCCCCCC)OC(=O)CCCCCCCCC [tricaprin] |  |  |  | reduces the kidney lesions | protects kidney against doxorubicin toxicity | reduces the kidney lesions | protects kidney against doxorubicin toxicity |  |  |  |  |  |  |  |  |  | 
3 | CCCCCCCCCC(=O)[O-].[Na+] [sodium caprate] |  |  |  | reduce the kidney lesions | protects kidney against doxorubicin toxicity | reduce the kidney lesions | protects kidney against doxorubicin toxicity | inhibits the increase of serum creatinine induced by doxorubicin to a similar level observed in control mice | inhibits the increase of serum urea induced by doxorubicin to a similar level observed in control mice | reduces the serum creatinine level | inhibits the increase of serum urea induced by doxorubicin to a similar level observed in control mice | more conserved | reduces fibrosis and necrosis | significant (p=0.00006) decrease | significant (p=0.0002) increase | 80 | significant decrease
